This is an account of results in patent publication US11530221B2, “Pyrimido[4,5-d]pyrimidin-2-one derivatives as protein kinase inhibitors” (KOREA INSTITUTE OF SCIENCE AND TECHNOLOGY, priority 2019, dated 2022).

Type in all cases: biochemical
Experiment [1] addresses T1, LYN (Homo sapiens, UniProt P07948). As to the kind of experiment: IC50 inhibitory activity against LYN kinase.
The next experiment has as its target BLK (Homo sapiens, UniProt P51451). Briefly: Full kinase panel, single concentration: BLK. As to conditions: read-out: residual enzyme activity (%) BLK. On the procedure: (§1) In order to measure the inhibitory activity (% inhibitory capacity) against protein kinases of the compounds of the present invention, biochemical assays were performed using a full kinase panel.
(§2) The experimental compounds used herein were the compounds of Compound Nos. 1 and 33. The residual enzyme activity (%) was calculated by measuring the inhibitory activity against kinases upon treatment with the experimental compound at a single concentration of 1 μM. Kinases having calculated residual enzyme activity (%) of 30% or less (that is, inhibition of 70% or more) are shown below.

The next experiment has as its target T2, BMX (Homo sapiens, UniProt P51813).
T2 sequence (P51813 1-675): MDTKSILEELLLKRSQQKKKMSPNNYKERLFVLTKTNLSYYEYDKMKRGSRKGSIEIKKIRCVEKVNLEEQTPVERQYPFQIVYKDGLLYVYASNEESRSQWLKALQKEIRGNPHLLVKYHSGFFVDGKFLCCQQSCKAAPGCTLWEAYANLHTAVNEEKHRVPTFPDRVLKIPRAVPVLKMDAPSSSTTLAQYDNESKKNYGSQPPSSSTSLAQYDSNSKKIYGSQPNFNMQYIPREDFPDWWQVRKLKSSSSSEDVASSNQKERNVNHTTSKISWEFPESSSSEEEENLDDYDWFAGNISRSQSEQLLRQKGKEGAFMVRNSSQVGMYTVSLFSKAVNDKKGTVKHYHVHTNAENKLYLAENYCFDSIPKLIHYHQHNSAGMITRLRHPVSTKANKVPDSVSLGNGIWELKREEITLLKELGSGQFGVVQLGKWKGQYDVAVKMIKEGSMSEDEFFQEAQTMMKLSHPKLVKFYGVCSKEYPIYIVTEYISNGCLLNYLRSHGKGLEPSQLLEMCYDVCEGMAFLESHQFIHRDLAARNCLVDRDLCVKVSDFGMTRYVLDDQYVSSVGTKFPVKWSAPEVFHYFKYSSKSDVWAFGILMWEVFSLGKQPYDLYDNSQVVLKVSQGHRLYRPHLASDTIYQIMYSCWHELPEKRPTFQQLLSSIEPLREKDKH
As to the kind of experiment: Full kinase panel, single concentration: BMX. As to conditions: read-out: residual enzyme activity (%) BMX. On the procedure: as §1, §2

For a further experiment, the target named is RAF1 (Homo sapiens, UniProt P04049). As to the kind of experiment: Full kinase panel, single concentration: RAF1. The note with it: read-out: residual enzyme activity (%) RAF1. On the procedure: as §1, §2
Experiment [2] concerns the target T3, DDR1 (Homo sapiens, UniProt Q08345). Briefly: IC50 inhibitory activity against DDR1 kinase. Here is the method:
(§3) IC50 values were calculated by measuring the inhibitory activity against LCK, c-Src, p38a/MAPK14, ABL1, DDR1 and FGR kinases of the compounds of the present invention.

A further experiment concerns the target ABL2 (Homo sapiens, UniProt P42684). Briefly: Full kinase panel, single concentration: ABL2. As to conditions: read-out: residual enzyme activity (%) ABL2. Here is the method:
as §1, §2

Experiment [3] addresses T4, c-Src (Homo sapiens, UniProt P12931). As to the kind of experiment: Full kinase panel, single concentration: c-Src. As to conditions: read-out: residual enzyme activity (%) c-Src. Here is the method: as §1, §2
The target in experiment [4] is T3, DDR1. Briefly: Full kinase panel, single concentration: DDR1. The note with it: read-out: residual enzyme activity (%) DDR1. On the procedure: as §1, §2
A further experiment concerns the target p38a/MAPK14 (Homo sapiens, UniProt Q16539). As to the kind of experiment: IC50 inhibitory activity against p38a/MAPK14 kinase. Here is the method: as §3
Experiment [5] addresses T5, FGR (Homo sapiens, UniProt P09769). As to the kind of experiment: IC50 inhibitory activity against FGR kinase. On the procedure: as §3
The target in experiment [6] is T4, c-Src. As to the kind of experiment: IC50 inhibitory activity against c-Src kinase. Here is the method:
as §3

The target in experiment [7] is T5, FGR. As to the kind of experiment: Full kinase panel, single concentration: FGR. As to conditions: read-out: residual enzyme activity (%) FGR. On the procedure:
as §1, §2

Experiment [8] concerns the target T6, LCK (Homo sapiens, UniProt P06239). Briefly: Full kinase panel, single concentration: LCK. The note with it: read-out: residual enzyme activity (%) LCK. On the procedure:
as §1, §2

A further experiment concerns the target CSK (Homo sapiens, UniProt P41240). Briefly: Full kinase panel, single concentration: CSK. The note with it: read-out: residual enzyme activity (%) CSK. On the procedure:
as §1, §2

Experiment [9] addresses T1, LYN. Briefly: Full kinase panel, single concentration: LYN. As to conditions: read-out: residual enzyme activity (%) LYN. On the procedure: as §1, §2
A further experiment deals with HCK (Homo sapiens, UniProt P08631). As to the kind of experiment: Full kinase panel, single concentration: HCK. The note with it: read-out: residual enzyme activity (%) HCK. On the procedure: as §1, §2
The target in a further experiment is ABL1 (Homo sapiens, UniProt P00519). Briefly: IC50 inhibitory activity against ABL1 kinase. Here is the method: as §3
The next experiment deals with T7, DDR2 (Homo sapiens, UniProt Q16832).
T7 sequence (Q16832 22-855): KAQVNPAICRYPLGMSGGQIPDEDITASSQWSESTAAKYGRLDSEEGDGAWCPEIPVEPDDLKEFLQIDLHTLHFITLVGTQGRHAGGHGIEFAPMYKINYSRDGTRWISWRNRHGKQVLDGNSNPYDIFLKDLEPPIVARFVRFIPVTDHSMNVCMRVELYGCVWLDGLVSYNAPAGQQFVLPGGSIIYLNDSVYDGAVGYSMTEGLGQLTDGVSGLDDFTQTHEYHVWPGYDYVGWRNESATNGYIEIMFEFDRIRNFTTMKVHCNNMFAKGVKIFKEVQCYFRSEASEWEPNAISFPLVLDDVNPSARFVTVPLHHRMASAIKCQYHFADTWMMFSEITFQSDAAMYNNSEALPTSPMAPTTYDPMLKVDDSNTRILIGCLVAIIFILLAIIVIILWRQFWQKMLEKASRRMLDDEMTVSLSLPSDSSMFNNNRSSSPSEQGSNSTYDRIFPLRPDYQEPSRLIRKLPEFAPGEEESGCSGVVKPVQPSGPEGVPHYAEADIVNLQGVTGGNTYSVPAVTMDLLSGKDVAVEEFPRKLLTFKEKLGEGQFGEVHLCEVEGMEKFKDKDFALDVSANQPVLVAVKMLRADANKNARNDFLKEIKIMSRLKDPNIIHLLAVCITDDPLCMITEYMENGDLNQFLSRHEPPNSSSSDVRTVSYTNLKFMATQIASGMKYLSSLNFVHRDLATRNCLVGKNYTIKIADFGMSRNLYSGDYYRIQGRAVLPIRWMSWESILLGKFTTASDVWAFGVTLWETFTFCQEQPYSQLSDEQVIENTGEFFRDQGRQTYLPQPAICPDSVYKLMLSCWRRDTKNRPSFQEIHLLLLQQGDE
Briefly: Full kinase panel, single concentration: DDR2. As to conditions: read-out: residual enzyme activity (%) DDR2. Here is the method: as §1, §2

The next experiment has as its target ABL1 (T315I) (Homo sapiens, UniProt P00519, T315I). Briefly: IC50 inhibitory activity against ABL1 (T315I) kinase. Here is the method:
as §3

In experiment [10] the target is T6, LCK. Briefly: IC50 inhibitory activity against LCK kinase. Here is the method:
as §3

Read-outs that look alike come from different tables or passages of the source. Square brackets hold non-standard residues; d marks the D form. Peptide text beside a SMILES is read from it. * marks the point of attachment. X1 = Cc1ccc(Nc2ncc3c(n2)N(C)C(=O)N(c2cc(C(=O)*)ccc2C)C3)cn1; Aib = CC(C)(N)C(=O)O Bounds are passed on as bounds.

T4 sequence (P12931 whole entry): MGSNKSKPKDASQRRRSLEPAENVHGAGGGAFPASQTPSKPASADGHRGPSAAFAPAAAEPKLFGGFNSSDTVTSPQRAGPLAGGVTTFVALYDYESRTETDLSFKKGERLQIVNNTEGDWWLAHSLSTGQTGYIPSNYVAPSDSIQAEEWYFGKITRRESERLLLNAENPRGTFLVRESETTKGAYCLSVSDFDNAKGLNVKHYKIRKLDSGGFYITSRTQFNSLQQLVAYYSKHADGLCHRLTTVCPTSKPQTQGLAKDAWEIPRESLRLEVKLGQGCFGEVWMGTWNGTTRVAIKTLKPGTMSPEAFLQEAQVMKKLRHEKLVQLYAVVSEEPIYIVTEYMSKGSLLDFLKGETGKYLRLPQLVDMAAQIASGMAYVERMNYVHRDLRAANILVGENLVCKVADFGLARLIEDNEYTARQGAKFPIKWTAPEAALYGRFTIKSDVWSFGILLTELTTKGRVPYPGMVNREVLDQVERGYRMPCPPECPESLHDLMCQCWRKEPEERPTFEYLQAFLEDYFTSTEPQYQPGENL
T3 sequence (Q08345 19-913): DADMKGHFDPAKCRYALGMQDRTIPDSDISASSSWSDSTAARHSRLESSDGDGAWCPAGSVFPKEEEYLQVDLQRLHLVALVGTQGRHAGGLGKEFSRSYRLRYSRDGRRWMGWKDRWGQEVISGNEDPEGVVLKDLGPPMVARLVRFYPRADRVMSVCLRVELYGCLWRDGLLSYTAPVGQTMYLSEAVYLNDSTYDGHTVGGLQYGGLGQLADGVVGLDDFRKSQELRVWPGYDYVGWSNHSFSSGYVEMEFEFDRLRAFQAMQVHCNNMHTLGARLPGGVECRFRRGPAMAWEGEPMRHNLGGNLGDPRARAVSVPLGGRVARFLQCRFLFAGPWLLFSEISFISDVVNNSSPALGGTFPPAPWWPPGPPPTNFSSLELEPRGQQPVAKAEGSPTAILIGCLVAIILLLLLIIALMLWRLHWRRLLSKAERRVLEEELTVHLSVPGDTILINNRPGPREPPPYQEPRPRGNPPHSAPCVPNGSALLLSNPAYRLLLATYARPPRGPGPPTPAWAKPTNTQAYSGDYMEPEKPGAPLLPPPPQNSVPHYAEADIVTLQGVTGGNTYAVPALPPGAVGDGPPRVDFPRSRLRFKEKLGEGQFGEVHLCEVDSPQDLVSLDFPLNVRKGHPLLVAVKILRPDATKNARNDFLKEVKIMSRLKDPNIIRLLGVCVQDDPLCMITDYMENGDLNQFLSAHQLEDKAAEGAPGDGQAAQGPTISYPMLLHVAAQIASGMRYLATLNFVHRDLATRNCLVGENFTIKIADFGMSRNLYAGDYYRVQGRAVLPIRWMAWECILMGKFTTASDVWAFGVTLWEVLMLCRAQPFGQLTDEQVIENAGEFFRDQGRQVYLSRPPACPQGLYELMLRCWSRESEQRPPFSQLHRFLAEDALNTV
T1 sequence (P07948 whole entry): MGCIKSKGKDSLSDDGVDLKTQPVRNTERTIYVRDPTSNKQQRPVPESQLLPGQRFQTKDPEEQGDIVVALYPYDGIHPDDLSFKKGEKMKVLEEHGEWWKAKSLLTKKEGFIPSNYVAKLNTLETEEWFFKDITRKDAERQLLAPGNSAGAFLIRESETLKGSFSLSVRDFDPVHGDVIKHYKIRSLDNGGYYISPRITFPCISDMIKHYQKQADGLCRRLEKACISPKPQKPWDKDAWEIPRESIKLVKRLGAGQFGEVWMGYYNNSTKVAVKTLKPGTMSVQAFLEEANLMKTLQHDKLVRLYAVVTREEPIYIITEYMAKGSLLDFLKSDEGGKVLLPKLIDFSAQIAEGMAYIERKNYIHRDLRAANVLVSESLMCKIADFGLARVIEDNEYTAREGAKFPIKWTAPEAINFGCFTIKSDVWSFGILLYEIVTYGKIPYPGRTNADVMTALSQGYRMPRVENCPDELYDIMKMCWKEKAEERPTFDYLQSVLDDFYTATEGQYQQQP
T6 sequence (P06239 whole entry): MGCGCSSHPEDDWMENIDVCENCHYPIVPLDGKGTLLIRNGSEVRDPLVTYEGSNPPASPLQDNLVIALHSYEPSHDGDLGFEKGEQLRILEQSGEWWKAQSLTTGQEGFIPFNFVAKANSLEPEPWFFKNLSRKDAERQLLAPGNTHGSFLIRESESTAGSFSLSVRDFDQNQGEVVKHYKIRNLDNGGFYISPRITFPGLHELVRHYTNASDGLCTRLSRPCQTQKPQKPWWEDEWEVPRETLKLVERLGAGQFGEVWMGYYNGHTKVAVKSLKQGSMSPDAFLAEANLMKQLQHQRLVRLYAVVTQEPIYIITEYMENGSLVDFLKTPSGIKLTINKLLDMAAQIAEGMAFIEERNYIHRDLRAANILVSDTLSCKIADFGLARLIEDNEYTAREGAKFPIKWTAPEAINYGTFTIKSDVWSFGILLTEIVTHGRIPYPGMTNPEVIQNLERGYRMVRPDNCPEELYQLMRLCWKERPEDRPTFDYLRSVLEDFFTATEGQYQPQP
T5 sequence (P09769 whole entry): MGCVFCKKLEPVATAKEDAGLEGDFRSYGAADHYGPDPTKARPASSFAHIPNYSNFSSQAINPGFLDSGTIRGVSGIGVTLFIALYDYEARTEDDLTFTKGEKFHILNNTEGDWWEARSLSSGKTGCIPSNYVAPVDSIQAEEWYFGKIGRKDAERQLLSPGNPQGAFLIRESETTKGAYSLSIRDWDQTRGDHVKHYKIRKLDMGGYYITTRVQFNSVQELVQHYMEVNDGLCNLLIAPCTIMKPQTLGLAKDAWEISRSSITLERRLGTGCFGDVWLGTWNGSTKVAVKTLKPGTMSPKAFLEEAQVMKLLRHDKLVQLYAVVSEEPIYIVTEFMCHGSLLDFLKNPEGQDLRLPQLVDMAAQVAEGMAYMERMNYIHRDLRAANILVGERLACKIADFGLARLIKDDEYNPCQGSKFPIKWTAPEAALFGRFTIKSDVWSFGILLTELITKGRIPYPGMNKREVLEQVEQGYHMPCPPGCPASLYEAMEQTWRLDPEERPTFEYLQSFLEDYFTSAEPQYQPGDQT
RAF1, sequence (P04049 whole entry): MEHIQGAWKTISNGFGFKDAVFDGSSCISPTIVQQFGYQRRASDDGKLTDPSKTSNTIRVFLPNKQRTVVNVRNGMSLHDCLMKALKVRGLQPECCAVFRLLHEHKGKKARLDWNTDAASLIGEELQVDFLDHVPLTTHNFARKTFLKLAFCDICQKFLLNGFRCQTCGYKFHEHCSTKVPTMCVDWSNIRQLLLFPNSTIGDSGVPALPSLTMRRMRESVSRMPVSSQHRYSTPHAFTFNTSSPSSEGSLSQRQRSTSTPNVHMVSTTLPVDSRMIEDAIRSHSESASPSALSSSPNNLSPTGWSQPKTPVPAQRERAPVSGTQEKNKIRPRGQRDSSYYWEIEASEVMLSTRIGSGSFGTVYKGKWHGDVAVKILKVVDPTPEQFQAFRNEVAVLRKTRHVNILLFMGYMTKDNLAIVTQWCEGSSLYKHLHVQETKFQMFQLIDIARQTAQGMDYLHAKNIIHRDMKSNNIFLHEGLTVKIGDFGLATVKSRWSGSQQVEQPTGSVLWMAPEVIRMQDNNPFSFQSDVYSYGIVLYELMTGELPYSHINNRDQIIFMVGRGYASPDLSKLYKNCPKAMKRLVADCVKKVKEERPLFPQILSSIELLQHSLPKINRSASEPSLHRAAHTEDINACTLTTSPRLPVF
CSK, sequence (P41240 whole entry): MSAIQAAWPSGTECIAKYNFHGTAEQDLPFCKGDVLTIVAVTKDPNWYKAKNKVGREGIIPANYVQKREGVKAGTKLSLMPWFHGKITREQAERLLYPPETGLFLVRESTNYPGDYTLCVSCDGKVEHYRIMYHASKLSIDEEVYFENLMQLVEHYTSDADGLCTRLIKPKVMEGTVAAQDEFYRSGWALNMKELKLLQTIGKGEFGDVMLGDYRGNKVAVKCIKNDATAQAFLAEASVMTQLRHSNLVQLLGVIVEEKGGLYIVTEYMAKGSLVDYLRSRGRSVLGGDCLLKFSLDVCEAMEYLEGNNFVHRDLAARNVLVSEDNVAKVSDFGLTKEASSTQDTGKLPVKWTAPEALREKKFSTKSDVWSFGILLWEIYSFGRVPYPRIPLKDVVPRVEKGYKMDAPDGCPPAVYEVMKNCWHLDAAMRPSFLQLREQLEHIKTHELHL
HCK, sequence (P08631 whole entry): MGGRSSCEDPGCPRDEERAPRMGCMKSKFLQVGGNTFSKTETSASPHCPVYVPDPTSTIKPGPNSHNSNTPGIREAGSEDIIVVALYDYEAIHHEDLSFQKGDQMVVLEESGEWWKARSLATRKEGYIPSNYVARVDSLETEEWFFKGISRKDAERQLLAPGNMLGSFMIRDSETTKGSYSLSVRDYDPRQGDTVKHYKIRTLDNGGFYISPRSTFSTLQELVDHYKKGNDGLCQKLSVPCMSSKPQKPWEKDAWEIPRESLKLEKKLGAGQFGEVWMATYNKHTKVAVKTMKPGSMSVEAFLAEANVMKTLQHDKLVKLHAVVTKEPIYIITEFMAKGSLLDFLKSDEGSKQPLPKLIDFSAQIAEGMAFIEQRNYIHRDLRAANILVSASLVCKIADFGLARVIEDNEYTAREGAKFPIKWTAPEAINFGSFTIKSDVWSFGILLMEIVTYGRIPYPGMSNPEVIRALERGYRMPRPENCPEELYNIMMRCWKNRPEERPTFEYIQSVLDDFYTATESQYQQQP
p38a/MAPK14, sequence (Q16539 whole entry): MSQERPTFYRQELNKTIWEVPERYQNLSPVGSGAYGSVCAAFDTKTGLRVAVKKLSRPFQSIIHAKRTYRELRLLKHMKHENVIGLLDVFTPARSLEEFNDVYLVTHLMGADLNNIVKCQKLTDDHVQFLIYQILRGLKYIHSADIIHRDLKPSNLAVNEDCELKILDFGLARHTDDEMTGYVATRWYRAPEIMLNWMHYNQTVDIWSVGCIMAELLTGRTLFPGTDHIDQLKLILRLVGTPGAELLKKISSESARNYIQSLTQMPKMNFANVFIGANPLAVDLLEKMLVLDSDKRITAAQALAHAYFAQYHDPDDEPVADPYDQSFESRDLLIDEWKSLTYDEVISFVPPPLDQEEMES

Take `Cc1ccc(Nc2ncc3c(n2)N(C)C(=O)N(c2cc(NC(=O)c4ccc5c(c4)N(Cc4ccccc4)C(=O)[C@H](CC(C)C)N=C5c4ccccc4)ccc2C)C3)cn1` [Example 33, (S)-1-benzyl-3-isobutyl-N-(4-methyl-3-(1-methyl-7-((6-methylpyridin-3-yl)amino)-2-oxo-1,4-dihydropyrimido[4,5-d]pyrimidin-3(2H)-yl)phenyl)-2-oxo-5-phenyl-2,3-dihydro-1H-benzo[e][1,4]diazepine-8-carboxamide]: the IC50 is 1 to 200 nM at LYN [1]; 1 to 200 nM on DDR1 [2] (read-out: DDR1 IC50); over 600 nM on p38a/MAPK14 (read-out: p38a/MAPK14 IC50); 1 to 200 nM on FGR [5] (read-out: FGR IC50); 400 to 600 nM at c-Src [6] (read-out: c-Src IC50); 400 to 600 nM on ABL1 (read-out: ABL1 IC50). For the same compound, the results for the IC50 at ABL1 (T315I) (read-out: ABL1 (T315I) IC50) and on LCK [10] (read-out: LCK IC50) were over 600 nM and 1 to 200 nM, respectively. The remaining activity at 1 µM on BLK (single concentration of 1 μM), at BMX (single concentration of 1 μM), at RAF1 (single concentration of 1 μM), on ABL2 (single concentration of 1 μM), on c-Src [3] (single concentration of 1 μM) and at DDR1 [4] (single concentration of 1 μM) was at most 30% each time. The remaining activity at 1 µM on FGR [7] (single concentration of 1 μM), at LCK [8] (single concentration of 1 μM), at CSK (single concentration of 1 μM), at LYN [9] (single concentration of 1 μM), at HCK (single concentration of 1 μM) and at DDR2 (single concentration of 1 μM) was at most 30% throughout.

With `Cc1ccc(Nc2ncc3c(n2)N(C)C(=O)N(c2cc(C(=O)N[C@H](C(=O)N4CCC[C@H]4C(=O)NC(C)(C)C(=O)N[C@@H](CC(C)C)C(=O)N(C)C)C(C)C)ccc2C)C3)cn1` [Example 1, (S)—N-(1-(((S)-1-(dimethylamino)-4-methyl-1-oxopentan-2-yl)amino)-2-methyl-1-oxopropan-2-yl)-1-((4-methyl-3-(1-methyl-7-((6-methylpyridin-3-yl)amino)-2-oxo-1,4-dihydropyrimido[4,5-d]pyrimidin-3(2H)-yl)benzoyl)-L-valyl)pyrrolidine-2-carboxamide] (X1-VP[Aib]L-NMe2), the remaining activity at 1 µM at BLK, on BMX, at RAF1, at ABL2, on c-Src [3] and on DDR1 [4] was at most 30% throughout. The remaining activity at 1 µM at FGR [7], at LCK [8], at CSK, on LYN [9], on HCK and at DDR2 was at most 30% throughout. Also, the IC50 at DDR1 [2] is 1 to 200 nM; against p38a/MAPK14, over 600 nM; at FGR [5], 1 to 200 nM; on c-Src [6], over 600 nM; against ABL1, 200 to 400 nM; against ABL1 (T315I), over 600 nM. This compound also displayed an IC50 at LCK [10] of 1 to 200 nM.
